Test results: publication PMC12071598, “Piperazine-Substituted Pyranopyridines Exhibit Antiproliferative Activity and Act as Inhibitors of HBV Virion Production” (International Journal of Molecular Sciences, 2025)
Like-named read-outs stand apart in the source and are kept apart here.

Key:
[1] = tested on: DU145; conditions: discussed for DU145; cited from earlier work
[2] = tested on: hepatitis B virus (HBV); test: microbe, parasite or virus in culture; type: cell-based; conditions: for log reduction at 1 µM / log reduction at 10 µM: Hepatitis B virus, 144 h; for Extracellular HBV DNA (Δlog10): 1 µM, 6 days treatment, conditioned medium (virion production)
[3] = tested on: K562; test: Antiproliferative activity, MTT assay, K562; type: cell-based; conditions: Homo sapiens, K562 chronic myeloid leukemia, 72 h
[4] = tested on: SH-SY5Y; test: Antiproliferative activity, crystal violet staining, SH-SY5Y; type: cell-based; conditions: Homo sapiens, SH-SY5Y neuroblastoma, 72 h
[5] = tested on: HeLa; test: Antiproliferative activity, MTT assay, HeLa; type: cell-based; conditions: Homo sapiens, HeLa cervix carcinoma, 72 h
[6] = tested on: A549; test: Antiproliferative activity, MTT assay, A549; type: cell-based; conditions: Homo sapiens, A549 lung carcinoma, 72 h
[7] = tested on: VV; test: microbe, parasite or virus in culture; type: cell-based; conditions: Orthopoxvirus vaccinia, 48 h, read-out: VV IC50, µM
[8] = tested on: HSV-1; test: microbe, parasite or virus in culture; type: cell-based, herpes simplex virus type 1; conditions: Human alphaherpesvirus 1, 48 h, read-out: HSV-1 IC50, µM
[9] = tested on: SARS-CoV-2; test: microbe, parasite or virus in culture; type: cell-based
[10] = Cytotoxicity by MTS assay in MDCK cells; type: cell-based; conditions: dog, read-out: Influenza A Virus CC50
Protocol: Production of influenza A virus (H1N1) stock and its infection of MDCK cells, as well as infection of Vero E6 cells with SARS-CoV-2, were described previously. Cytotoxicity of the compounds towards MDCK and VeroE6 cells was assessed by seeding 18,000 cells/well of […] plates in 0.1 mL DMEM, treating with the compounds for 66 h, and measuring cell viability by MTS assay. As positive controls, oseltamivir and N-hydroxicytidine were used (obtained from Sigma).
The compounds were added at non-toxic concentrations in serum-free DMEM to the respective cells; one hour later, the serial 10-fold dilutions of influenza virus or SARS-CoV-2 were added in serum-free medium, and antiviral activity was determined by the reduction in the infectious titer of the virus by cytopathic action (CPE). Calculation of 50% cytotoxic concentration (CC50) and 50% effective concentration (IC50) was performed by standard methods using Microsoft Excel 5.0 and GraphPad Prism 8 (GraphPad Software Inc., Boston, MA, USA).

[11] = tested on: NDV; test: microbe, parasite or virus in culture; type: cell-based, Newcastle disease virus; conditions: avian paramyxovirus 1, 48 h, read-out: NDV IC50, µM
[12] = tested on: HepaRG; test: Cytotoxicity towards non-tumor differentiated HepaRG cells, MTT; type: cell-based, human; conditions: concentration decreasing number of viable cells by 50%; for IC50: Homo sapiens
[13] = tested on: PV1; test: microbe, parasite or virus in culture; type: cell-based, poliovirus type 1; conditions: Enterovirus C, 48 h, read-out: PV1 IC50, µM
[14] = tested on: DU145; test: Antiproliferative activity, MTT assay, DU145; type: cell-based; conditions: Homo sapiens, DU-145, DU145 prostate carcinoma, 72 h
[15] = tested on: Influenza A virus; test: microbe, parasite or virus in culture; type: cell-based, influenza A virus (H1N1)
[16] = tested on: A549 cells; test: Intracellular ROS assay, DCFH2-DA in A549 cells; type: cell-based; conditions: A549, 10 µM, 72 h
Excerpt: As cell death is often triggered by increased production of reactive oxygen species (ROS), the next step was to evaluate if our compounds act as pro-oxidants. ROS production was accessed using cell-permeable redox sensitive DCFH2-DA dye. […] As one of the main sites of ROS production is mitochondria, we also evaluated their membrane potential during treatment with either DO11-46 or DO11-48. […] Lysosome activation often accompany late stages of apoptosis, which is in good accordance with our data on the induction of caspase3/7 activity.
Pro-oxidant activity of the compounds was studied by quantification of ROS production using a cell-permeable fluorogenic probe 2′,7′-dichlorodihydrofluorescein diacetate (DCFH2-DA). A549 cells were seeded on a 48-well plate at a density of 10,000 cells/well. Twenty-four hours later, the compounds were added to 10 µM concentration in quadruplicate, and the cells were kept for 72 h. As a positive control, A549 cells were treated with 1 mM H2O2 for 2 h prior analysis. Then, media were replaced with the fresh FBS-lacking DMEM supplemented with 25 µM DCFH2-DA. After 45 min incubation, the cells were washed 10 times with 500 µL PBS, resuspended in 200 µL PBS and transferred to a black 96-well plate. The fluorescence intensities (FLIs) were measured using CHAMELEON V microplate reader with excitation at 485 nm and emission at 535 nm.

[17] = read-out: Extracellular HBV DNA (Δlog10)
[18] = read-out: Intracellular Total HBV RNA (Δlog10)
[19] = Severe acute respiratory syndrome coronavirus 2, Vero C1008, read-out: SARS-CoV-2 IC50, µM

| SMILES | log reduction at 1 µM [2, 17] | log reduction at 10 µM [2, 17] | log reduction at 1 µM [2, 18] | log reduction at 10 µM [2, 18] | IC50 [3] [µM] | IC50 [4] [µM] | IC50 [5] [µM] | IC50 [6] [µM] | IC50 [7] [µM] | IC50 [8] [µM] | IC50 [9, 19] [µM] | CC50 at 66 h [10] [µM] | IC50 [11] [µM] | IC50 [12] [µM] | IC50 [13] [µM] | IC50 [14] [µM] | Influenza A Virus Δlgmax [15] | SARS-CoV-2 Δlgmax [9] | other results |
| --- | --- | --- | --- | --- | --- | --- | --- | --- | --- | --- | --- | --- | --- | --- | --- | --- | --- | --- | --- |
| Fc1ccc(C(c2ccc(F)cc2)N2CCNCC2)cc1 [1-bis(4-fluorophenyl)methylpiperazine] | – | – | – | – | – | – | – | – | – | – | – | – | – | – | – | – | – | – | GI50 [1]: 1.8 µM |
| Nc1ccn([C@@H]2CS[C@H](CO)O2)c(=O)n1 [3TC, Lamivudine, reference compound] | 0.93 | 1.04 | < 0.5 | < 0.5 | – | – | – | – | – | – | – | – | – | – | – | – | – | – | – |
| O=c1[nH]cc(F)c(=O)[nH]1 [5-Fluorouracil, reference compound] | – | – | – | – | 1.3 ± 0.3 | 1.5 ± 0.2 | 1.2 ± 0.3 | – | – | – | – | – | – | – | – | – | – | – | – |
| CC1(C)Cc2c(C#N)c(SCC(N)=O)nc(N3CCNCC3)c2CO1 [DO11-37, 2-[(5-Cyano-3,3-dimethyl-8-piperazin-1-yl-3,4-dihydro-1H-pyrano[3,4-c]pyridin-6-yl)thio]acetamide] | 1.97 ± 0.03 | 2.32 ± 0.16 | < 0.5 | < 0.5 | 91.4 ± 29.6 | 99.4 ± 21.4 | 133 ± 38 | 294 ± 35.9 | > 300 | > 300 | > 200 | 1680 | > 300 | 968 ± 87.8 | > 300 | 225 ± 52.4 | – | – | Extracellular HBV DNA (Δlog10) [2]: significantly reduced levels of virion production; IC50 (µM) HepaRG [12]: almost non-toxic |
| CC1(C)Cc2c(C#N)c(SCc3ccccc3Cl)nc(N3CCNCC3)c2CO1 [DO11-42, 6-[(2-Chlorobenzyl)thio]-3,3-dimethyl-8-piperazin-1-yl-3,4-dihydro-1H-pyrano[3,4-c]pyridine-5-carbonitrile] | 2.52 ± 0.36 | 2.31 ± 0.29 | < 0.5 | 0.53 ± 0.31 | 1.5 ± 0.8 | 4.5 ± 1.8 | 1.9 ± 0.3 | 7 ± 1.9 | > 7.5 | > 7.5 | > 15 | 440 | > 7.5 | 24.5 ± 2.8 | > 7.5 | 1.3 ± 0.2 | 0.5 | 0 | ROS generation [16]: significantly increased ROS generation; Extracellular HBV DNA (Δlog10) [2]: significantly reduced levels of virion production |
| CC(=O)c1ccc(NC(=O)CSc2nc(N3CCNCC3)c3c(c2C#N)CC(C)(C)OC3)cc1 [DO11-50, N-(4-acetylphenyl)-2-[(5-cyano-3,3-dimethyl-8-piperazin-1-yl-3,4-dihydro-1H-pyrano[3,4-c]pyridin-6-yl)thio]acetamide] | < 0.5 | < 0.5 | < 0.5 | < 0.5 | 45.6 ± 20 | 13.2 ± 4.3 | 74.5 ± 3.5 | 45.8 ± 12.6 | > 5 | > 5 | > 15 | 1270 | > 5 | 42.4 ± 8.3 | > 5 | 26.7 ± 8.4 | 0 | 0 | – |
| O=c1nc(NO)ccn1[C@@H]1O[C@H](CO)[C@@H](O)[C@H]1O [N-HydroxyC, N-hydroxicytidine, reference compound] | – | – | – | – | – | – | – | – | – | – | – | – | – | – | – | – | – | 5.0 | IC50 ([9]; read-out: SARS-CoV-2 IC50): 0.5 µM |
| CCOC(=O)C1=C[C@@H](OC(CC)CC)[C@H](NC(C)=O)[C@@H](N)C1 [Oseltamivir, reference compound] | – | – | – | – | – | – | – | – | – | – | – | > 10 | – | – | – | – | 6.0 | – | IC50 ([15]; Influenza A virus, MDCK, read-out: Influenza A Virus IC50, µM): 0.02 µM |
| CNC(=O)c1cc(Oc2ccc(NC(=O)Nc3ccc(Cl)c(C(F)(F)F)c3)cc2)ccn1 [Sorafenib, reference compound] | – | – | – | – | – | 40 ± 10 | – | – | – | – | – | – | – | > 100 | – | – | – | – | – |
| FC(F)(F)c1ccc(CN2CCNCC2)cc1 [[4-(trifluoromethyl)benzyl]piperazine] | – | – | – | – | – | – | – | – | – | – | – | – | – | – | – | – | – | – | GI50 [1]: 1.6 µM |
